Assay results as given in patent publication EP3130589A1, “HETEROCYCLIC AZA COMPOUNDS” (Grünenthal GmbH, priority 2015, dated 2017).

Target: T1, TRPV1 human (Homo sapiens, UniProt Q8NER1)
T1 construct: expressed in transfected cells; host or cells: CHO K1 cells
Assay: Functional testing on the vanilloid receptor 1 (VR1/TRPV1): FLIPR Ca2+ influx assay, inhibition of capsaicin (CAP) stimulation
Format: cell-based
Conditions: ne = did not show any effect in this assay; pAG = partial agonist
Experimental: Furthermore, preference may be given to compounds according to the invention that cause a 50 per cent displacement of capsaicin, which is present at a concentration of 100 nM, in a FLIPR assay with CHO K1 cells which were transfected with the human VR1 gene at a concentration of less than 6,000 nM, preferably less than 5,000 nM, more preferably less that 3,000 nM or less than 1,000 nM and particularly preferably less than 300 nM, most particularly preferably less than 100 nM, even more preferably less than 75 nM, additionally preferably less than 50 nM, most preferably less than 10 nM.
In the process, the Ca^2+ influx is quantified in the FLIPR assay with the aid of a Ca^2+-sensitive dye (type Fluo-4, Molecular Probes Europe BV, Leiden, the Netherlands) in a fluorescent imaging plate reader (FLIPR, Molecular Devices, Sunnyvale, USA), as described hereinafter.
Functional testing carried out on the vanilloid receptor 1 (VRI/TRPV1 receptor) […]
The number of cells in the suspension is set to 3 x 10^5 per mL and 150 µL of this suspension are in each case introduced into a recess in the cell culture plates coated as described hereinbefore. In the incubator the plates are left for two to three days at 37°C, 5 vol.-% of CO2 and 95 % relative humidity. Subsequently, the cells are loaded with 2 µM of Fluo-4 and 0.01 vol.-% of Pluronic F127 (Molecular Probes Europe BV, Leiden, the Netherlands) in HBSS buffer for 30 min at 37°C, washed 3 times with HBSS buffer and after further incubation for 15 min at RT used for Ca^2+ measurement in a FLIPR assay. The Ca^2+-dependent fluorescence is in this case measured before and after the addition of substances (λex = 488 nm, λem = 540 nm). Quantification is carried out by measuring the highest fluorescence intensity (FC, fluorescence counts) over time.
The FLIPR protocol consists of 2 substance additions. First the compounds to be tested (10 µM) are pipetted onto the cells and the Ca^2+ influx is compared with the control (capsaicin 10 µM). This provides the result in % activation based on the Ca^2+ signal after the addition of 10 µM of capsaicin (CP). After 5 min incubation, 100 nM of capsaicin are applied and the Ca^2+ influx is also determined. Desensitising agonists and antagonists lead to suppression of the Ca^2+ influx. The % inhibition is calculated compared to the maximum achievable inhibition with 10 µM of capsazepine.
Triple analyses (n=3) are carried out and repeated in at least 3 independent experiments (N=4). Starting from the percentage displacement caused by different concentrations of the compounds to be tested of general formula I, IC50 inhibitory concentrations which cause a 50% displacement of capsaicin were calculated.
Ki values for the test substances were obtained by conversion by means of the Cheng-Prusoff equation (Cheng, Prusoff; Biochem. Pharmacol. 22, 3099-3108, 1973).

T1 sequence (Q8NER1 whole entry): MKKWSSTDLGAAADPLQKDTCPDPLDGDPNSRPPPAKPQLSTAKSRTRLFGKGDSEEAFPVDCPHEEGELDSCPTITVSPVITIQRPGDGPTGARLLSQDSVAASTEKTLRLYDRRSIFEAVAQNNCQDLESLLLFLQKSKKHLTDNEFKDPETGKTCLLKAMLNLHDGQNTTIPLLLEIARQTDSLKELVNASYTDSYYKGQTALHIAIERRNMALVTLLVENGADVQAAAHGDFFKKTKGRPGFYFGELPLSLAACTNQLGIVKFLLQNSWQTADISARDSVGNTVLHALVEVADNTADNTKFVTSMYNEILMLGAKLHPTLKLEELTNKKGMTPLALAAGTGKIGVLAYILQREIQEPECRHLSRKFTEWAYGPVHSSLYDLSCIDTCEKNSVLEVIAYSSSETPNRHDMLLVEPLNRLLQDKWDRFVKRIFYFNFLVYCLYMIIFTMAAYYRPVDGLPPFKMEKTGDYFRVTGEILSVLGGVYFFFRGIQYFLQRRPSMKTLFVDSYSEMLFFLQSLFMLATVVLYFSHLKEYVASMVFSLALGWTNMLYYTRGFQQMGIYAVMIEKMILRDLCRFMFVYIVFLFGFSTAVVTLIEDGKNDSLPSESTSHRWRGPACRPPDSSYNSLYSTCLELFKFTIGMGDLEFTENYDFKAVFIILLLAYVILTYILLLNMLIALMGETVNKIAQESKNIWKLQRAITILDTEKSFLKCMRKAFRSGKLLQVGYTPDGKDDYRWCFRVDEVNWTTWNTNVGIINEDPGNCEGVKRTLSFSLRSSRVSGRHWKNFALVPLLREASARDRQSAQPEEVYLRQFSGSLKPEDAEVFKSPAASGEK

TRPV1 human (f) CAP, result in words: ne
SMILES: CC1CCN(c2nc(C(F)(F)F)ccc2CNC(=O)Nc2nc3ccccc3[nH]2)CC1 [example compound 26, 1-(1H-benzo[d]imidazol-2-yl)-3-((2-(4-methylpiperidin-1-yl)-6-(trifluoromethyl)pyridin-3-yl)methyl)urea]
